Laboratory results taken from patent US20180326021A1, “Methods and Compositions for the Treatment of Cytoplasmic Glycogen Storage Disorders” (Duke University, priority 2015, published 2018).
“And” between values parts separate entries of the source, which are not always exact repeats. Identical values can stand only once. “Also recorded” adds a separate entry of the source.

What was measured:
[1] = system: primary muscle cells from GSD IIIa patients; test: rhGAA treatment of cultured primary muscle cells from GSD III patients; type: cell-based, human; conditions: normal and GSD III patient primary muscle cells, rhGAA added to culture
Protocol: FIG. 2 illustrates an analysis of the skeletal muscle biopsies from two GSD Ma patients, a person (Pt. 1) and a person (Pt. 2). […] (B) Under EM, occasional lysosomal glycogen (arrow) was also seen in the myocytes (scale bar=1 μm). […] (E) GAA activity in normal and patient cells 48 h after adding recombinant human acid alpha-glucosidase (rhGAA, Myozyme, alglucosidase alfa) treatment. […] Mean±standard deviation is shown in C—F (n=4). The significance of differences between two different groups was assessed using the two-tailed, equal variance student T-test ([…]).

[2] = system: primary GSD IV mouse muscle cells; test: rhGAA treatment of cultured primary myoblasts from GSD IV mice; type: cell-based
Protocol: Primary myoblast cells were isolated from 7-day-old GSD IV mouse skeletal muscle. Early passage cells were seeded in 10-cm culture dishes with EMEM medium containing 10% FBS. When cells reached 90% confluence, rhGAA was added to the culture medium (final activity =1000 nmol/hr/ml). The cells were harvested 24 hours later to analyze glycogen content and GAA activity.
Reduction of glycogen deposition in GSD IV mouse myoblasts by rhGAA treatment was also confirmed by immunofluorescence staining using a mouse anti-glycogen monoclonal antibody ESG1A9mAb.

GSD IV mice = test: Short-term rhGAA enzyme replacement therapy in GSD IV mice; type: in vivo, mouse
Protocol: (§1) Methods: A short-term study was conducted to determine the minimum effective dose (MED) of rhGAA treatment with 3 dosages: 20 mg/kg (human equivalent dose, n=6), 40 mg/kg (n=9), and 100 mg/kg (n=8). Male GSD IV mice received weekly intravenous injections of rhGAA were conducted for 4 week starting at age of 10 weeks. A group of age-matched untreated mice (n=8) were used as controls. To prevent anaphylactic reactions, the animals were administered 25 mg/kg diphenhydramine (i.p.) 10-15 min prior to enzyme administration. All mice were sacrificed 48 hours after the last injection following overnight fasting. Fresh tissues were immediately frozen and stored at −80° C. until use for GAA activity and glycogen content analyses. Protein concentration was measured using BCA method.

GSD III mice = test: Short-term rhGAA enzyme replacement therapy in GSD III mice; type: in vivo, mouse
Protocol: as §1, with “GSD III mice were used to test 3 dosages” for “A short-term study was conducted”, “treatment:” for “treatment with 3 dosages:”, “(n=6),” for “(human equivalent dose, n=6),”, “(n=5),” for “(n=9),”, “(n=7). Weekly” for “(n=8). Male GSD IV mice received weekly”, “10 -15” for “10-15”

[3] = system: patient with PRKAG2 pathogenic gene mutation; test: Alglucosidase alfa ERT in a patient with PRKAG2 mutation (case report); type: in vivo, human; conditions: for overall clinical response (neurological, occupational and physical therapy reports): after reinitiation of ERT
From the text: A patient was born by caesarian section at 38 weeks gestation as a result of the nuchal cord being wrapped around their neck. The patient was noted to have hypotonia and generalized muscle weakness. They were areflexic and had feeding difficulties. The patient began developing severe lower respiratory infections which led to frequent admissions to the hospital. […] Following numerous recurrent pneumonias, and the history of muscle weakness, the patient's physicians raised Pompe disease as a potential diagnosis. […] Given the early findings of hypotonia and the low GAA enzyme activity, a diagnosis of non-classic infantile Pompe disease was made. The patient was initiated on ERT with alglucosdase alfa at a dose of 20 mg/kg every 2 weeks.
Baseline assessments were done which included tests for AST (44 IU/L; normal range: <45 IU/L), ALT (20 IU/L; normal range: 9-80 IU/L), along with PT measures looking at muscle strength and function measures. […] Upon examination, the patient has developed more defined calf muscles, along with an improvement of […] strength and power. […] has grown physically stronger and has not had episodes in which […] lacks energy for consecutive days, becomes completely floppy, and is unable to hold their head up properly following a seizure.
At baseline, according to the MABC assessment, the patient achieved a Total Test Score of 68 ranking them in the 25th percentile. Five months after reinitiation of ERT, the patient achieved a Total Test Score of 73 on […] MABC assessment, ranking them in the 37th percentile. A minimal detectable change (MDC) for the MABC has been reported as 1.21 points, representing a true change in motor function. The results in this child show an increase of 5 points over 5 months, which is greater than the minimal important difference (MID) of the MABC, which has been reported as a change of 2.5 points shown over 6 months.

[4] = rhGAA 1000 nmol/hr/ml in medium, cells harvested 24 hours later
[5] = 20 mg/kg weekly i.v. for 4 weeks
[6] = 40 mg and 100 mg rhGAA treatment
[7] = 40 mg/kg weekly i.v. for 4 weeks
[8] = weekly rhGAA for 4 weeks at 20, 40 or 100 mg/kg, data not shown
[9] = over 5 months on ERT vs pre-ERT baseline
[10] = reassessment, 5 months post ERT

## recombinant human acid alpha-glucosidase [rhGAA]
[1]
  glycogen concentration: significantly reduced
[2]; 4 hours after rhGAA treatment
  glycogen deposition (immunofluorescence staining): reduction of glycogen was obvious
[2]; 24 hours after rhGAA treatment
  glycogen deposition (immunofluorescence staining): became more evident
[2]; immunofluorescence staining
  glycogen deposition (anti-glycogen antibody ESG1A9mAb staining): reduced glycogen deposition
[2]; [4]
  GAA activity increase: 50%
  glycogen content decrease: 24%
[2]; rhGAA treated vs untreated cells
  glycogen content: significantly (p<0.01) reduced
GSD IV mice; 20 mg/kg
  glycogen in any tissue: failed to reduce glycogen in any tissue
  reduction of glycogen accumulation in liver: not significant
GSD IV mice; [5]
  GAA activity in heart, increase: 1.7 fold
  GAA activity in liver, increase over untreated controls: 29 fold
GSD IV mice; [6]
  liver glycogen decrease: 21-25%
GSD IV mice; [7]
  GAA activity in heart, increase: 2.8 fold
  glycogen content in liver, change: −21%
GSD IV mice; 40 mg/kg, p<0.01 vs untreated
  plasma alanine aminotransferase (ALT): 650±32 U/L
GSD IV mice; 40 mg/kg, p<0.05 vs untreated
  liver/body weight ratio: 5.0±0.2%
GSD IV mice; 40 mg/kg, p=0.074 vs untreated
  plasma aspartate aminotransferase (AST): 849±50 U/L
GSD IV mice; 100 mg/kg
  GAA activity in skeletal muscles, increase: 1.6 fold
GSD IV mice; 100 mg/kg weekly i.v. for 4 weeks
  glycogen content in liver, change: −25%
GSD IV mice; 20, 40, 100 mg/kg, dose dependent
  GAA activity in tissues: significant increase
GSD IV mice; at either dosage (20 or 40 mg/kg)
  GAA activity in quadriceps, increase: negligible
GSD IV mice; either treated group (20 or 40 mg/kg)
  GAA activity in gastrocnemius, increase: less than 1 fold
GSD IV mice; [8]
  anti-GAA antibodies generated, compared with that reported in GAA-KO mice: significantly less
GSD III mice; [6]
  liver glycogen decrease: 24-25%
GSD III mice; 40 mg and 100 mg treatments
  glycogen content in heart: significantly reduced
  glycogen content in liver: significantly reduced
  ratio of liver/body weight: reduced
GSD III mice; 20-mg treatment
  glycogen content in any tissues: did not affect
GSD III mice; 40-mg and 100-mg treatment groups
  glycogen content in skeletal muscles: no significant change
GSD III mice; weekly i.v. for 4 weeks
  GAA enzyme uptake (GAA activity rank order of tissues): liver>heart>diaphragm>leg muscles
GSD III mice; weekly rhGAA for 4 weeks
  plasma alanine aminotransferase (ALT): reduction
  plasma alkaline phosphatase (ALP): reduction
  plasma aspartate aminotransferase (AST): reduction
  plasma creatine kinase (CK): reduction
GSD III mice; [8]
  anti-GAA antibodies generated, compared with that reported in GAA-KO mice: significantly less
[3]; after five months of ERT
  visual motor, fine motor, and gross motor skills (M-FUN): improvement
[3]; listed as ERT
  overall clinical response (neurological, occupational and physical therapy reports): a clinical benefit was noted; also recorded: significant positive response
[3]; listed as alglucosidase alfa
  overall clinical response (neurological, occupational and physical therapy reports): significant improvement; also recorded: significant musculoskeletal improvements
[3]; five months of ERT, listed as ERT
  fatigue on reassessment: less fatigue
[3]; [9]
  Movement ABC percentile increase: 12
  Movement ABC score increase: 5 points
[3]; re-assessment, 5 months after reinitiation of ERT
  Movement ABC Total Test Score: 73
[3]; re-assessment, 5 months after reinitiation of ERT, listed as ERT
  Movement ABC percentile: 37 percentile and 37th percentile
[3]; [10]
  M-FUN Fine Motor Progress Score: 394
  M-FUN Fine Motor Scaled Score: 5 (considered mild/
  M-FUN Fine Motor assessment notes: Patient's scaled scores show a fine motor improvement
  M-FUN Gross Motor Progress Score: 407
  M-FUN Gross Motor Scaled Score: 3 (considered very
  M-FUN Gross Motor reassessment notes: gaining new motor skills and is improving in their current
  M-FUN Visual Motor Progress Score: 496
  M-FUN Visual Motor Scaled Score: 9 (considered “average” or
  M-FUN Visual Motor assessment notes: Patient's scaled scores show a visual motor improvement
[3]; since reinitiation of ERT
  seizures: better controlled
[3]; three months after first initiation of ERT, 20 mg/kg every 2 weeks
  gross motor abilities assessed by physical therapist: began improving
